Results taken from patent US8969388B1, “Substituted pyrazolone compounds and methods of use” (Calitor Sciences, LLC, priority 2012, dated 2015).
Where two headings read alike, the source gives them in different places.

Columns and labels:
c-Met (h) = target: T1, c-Met (h) (Homo sapiens, UniProt P08581); experiment: KINOMEscan competition binding assay, c-Met (h)
T1 construct: host or cells: E. coli BL21-derived host (T7 phage) or HEK-293
Experimental: (§1) Alternatively, the kinase activities of the compounds can be measured using KINOMEscan™, which is based on a competition binding assay that quantitatively measures the ability of a compound to compete with an immobilized, active-site directed ligand. The assay was performed by combining three components: DNA-tagged kinase; immobilized ligand; and a test compound. The ability of the test compound to compete with the immobilized ligand was measured via quantitative PCR of the DNA tag.
(§2) For most assays, kinase-tagged T7 phage strains were prepared in an E. coli host derived from the BL21 strain. E. coli were grown to log-phase and infected with T7 phage and incubated with shaking at 32° C. until lysis. The lysates were centrifuged and filtered to remove cell debris. The remaining kinases were produced in HEK-293 cells and subsequently tagged with DNA for qPCR detection. Streptavidin-coated magnetic beads were treated with biotinylated small molecule ligands for 30 minutes at room temperature to generate affinity resins for kinase assays. The liganded beads were blocked with excess biotin and washed with blocking buffer (SEABLOCK™ (Pierce), 1% BSA, 0.05% TWEEN®20, 1 mM DTT) to remove unbound ligand and to reduce nonspecific binding. Binding reactions were assembled by combining kinases, liganded affinity beads, and test compounds in 1× binding buffer (20% SEABLOCK™, 0.17×PBS, 0.05% TWEEN®20, 6 mM DTT). All reactions were performed in polystyrene 96-well plates in a final volume of 0.135 mL. The assay plates were incubated at room temperature with shaking for 1 hour and the affinity beads were washed with wash buffer (1×PBS, 0.05% TWEEN®20). The beads were then re-suspended in elution buffer (1×PBS, 0.05% TWEEN®20, 0.5 μM non-biotinylated affinity ligand) and incubated at room temperature with shaking for 30 minutes. The kinase concentration in the eluates was measured by qPCR.
(§3) The kinase assays described herein were performed using KINOMEscan™ Profiling Service at DiscoveRx Corporation, 42501 Albrae St. Fremont, Calif.

U87MG glioblastoma cells = experiment: U87MG tumor xenograft model, tumor growth inhibition; assay type: in vivo, athymic nude mice (BALB/cA nu/nu); conditions: mice, oral gavage
Experimental: The efficacy of compounds disclosed herein was evaluated in a standard murine model of tumorigenesis. Human tumor cells (U87MG glioblastoma cells from ATCC) were expended in culture, harvested, and injected subcutaneously onto the rear flank of 6-7 week old female athymic nude mice (BALB/cA nu/nu, Hunan SLAC Laboratory Animal, Co.) (n=6-10 for vehicle group and for each dosing group). When tumors reached a volume of 100-250 mm^3, animals were randomly divided into vehicle control (for example, 5% DMSO+70% Captisol® (30%), 7% HCl (pH1), 18% Captisol® (30%); or 7% DMSO, 7% HCl (pH1), 70% Captisol® (30%), 16% Captisol® (30%), or the like) and compound groups. Subsequent administration of compound by oral gavage begins anywhere from day 0 to day 15 post tumor cell challenge and generally continues with once a day for the duration of the experiment.
Progression of tumor growth is assessed by tumor volumes and recorded as a function of time. The long (L) and short (W) axes of the subcutaneous tumors were measured with calipers twice weekly, and the tumor volume (TV) calculated as (L×W^2)/2). TGI was calculated from the difference between the median tumor volumes of vehicle-treated and drug-treated mice, expressed as a percentage of the median tumor volume of the vehicle-treated control group, by the following relation:
[formula] Initial statistical analysis is done by repeated measures analysis of variance (RMANOVA), followed by Scheffe psot hoc testing for multiple comparisons. Vehicle alone (5% DMSO+70% Captisol® (30%), 7% HCl (pH1), 18% Captisol® (30%); or 7% DMSO, 7% HCl (pH1), 70% Captisol® (30%), 16% Captisol® (30%), or the like) is the negative control.

KDR (h) = target: T2, KDR (h) (Homo sapiens, UniProt P35968); experiment: KINOMEscan competition binding assay, KDR (h)
T2 construct: host or cells: E. coli BL21-derived host (T7 phage) or HEK-293
T2 sequence (P35968 20-1356): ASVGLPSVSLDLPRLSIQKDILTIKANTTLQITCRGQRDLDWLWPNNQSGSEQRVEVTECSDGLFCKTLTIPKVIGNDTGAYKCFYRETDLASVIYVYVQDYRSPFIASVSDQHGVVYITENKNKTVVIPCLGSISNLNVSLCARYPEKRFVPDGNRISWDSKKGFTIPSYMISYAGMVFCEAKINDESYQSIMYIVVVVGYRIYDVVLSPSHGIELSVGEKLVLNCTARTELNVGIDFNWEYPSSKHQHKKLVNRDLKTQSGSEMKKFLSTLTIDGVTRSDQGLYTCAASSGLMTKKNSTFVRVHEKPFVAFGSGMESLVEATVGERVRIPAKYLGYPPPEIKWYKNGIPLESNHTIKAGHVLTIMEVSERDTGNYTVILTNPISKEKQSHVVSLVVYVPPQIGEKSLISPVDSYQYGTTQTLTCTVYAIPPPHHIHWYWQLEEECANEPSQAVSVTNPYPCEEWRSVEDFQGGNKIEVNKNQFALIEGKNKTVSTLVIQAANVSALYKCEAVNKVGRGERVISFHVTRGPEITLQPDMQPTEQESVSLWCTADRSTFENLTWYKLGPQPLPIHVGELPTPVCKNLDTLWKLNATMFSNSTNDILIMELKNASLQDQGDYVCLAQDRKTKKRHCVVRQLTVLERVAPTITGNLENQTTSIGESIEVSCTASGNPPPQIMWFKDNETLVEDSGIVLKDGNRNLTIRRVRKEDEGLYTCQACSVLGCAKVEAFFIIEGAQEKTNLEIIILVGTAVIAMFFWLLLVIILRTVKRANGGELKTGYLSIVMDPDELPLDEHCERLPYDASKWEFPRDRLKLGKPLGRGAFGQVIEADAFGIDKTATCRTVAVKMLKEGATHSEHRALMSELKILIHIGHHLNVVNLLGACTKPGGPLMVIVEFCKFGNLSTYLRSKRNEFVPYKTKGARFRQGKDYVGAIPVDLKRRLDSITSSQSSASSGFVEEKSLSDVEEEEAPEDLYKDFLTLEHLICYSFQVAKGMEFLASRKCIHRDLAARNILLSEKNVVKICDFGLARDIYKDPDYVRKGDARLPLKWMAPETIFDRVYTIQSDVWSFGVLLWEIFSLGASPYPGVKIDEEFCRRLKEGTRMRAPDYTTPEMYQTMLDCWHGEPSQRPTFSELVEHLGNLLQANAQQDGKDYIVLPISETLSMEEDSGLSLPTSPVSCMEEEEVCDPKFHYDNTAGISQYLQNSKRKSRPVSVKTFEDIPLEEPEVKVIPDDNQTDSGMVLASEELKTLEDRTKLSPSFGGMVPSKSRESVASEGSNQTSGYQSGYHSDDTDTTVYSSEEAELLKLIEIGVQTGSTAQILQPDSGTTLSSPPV
Experimental: as §1, §2, §3

[1] = Pharmacokinetics after intravenous and oral administration in rats; assay type: in vivo; conditions: for F: oral bioavailability, oral dose not given; for AUC(0-t) / half-life / Vd: rat, plasma; for clearance (CL) after iv dosing / AUC(0-t) / half-life / Vd: iv dosing; for Vd: read-out: Vss
Experimental: The compounds disclosed herein are assessed in pharmacokinetic studies in mice, rats, dogs or monkeys. The compounds are administered as a water solution, 2% HPMC+1% TWEEN®80 in water solution, 5% DMSO+5% solutol in saline, 4% MC suspension or capsule. For the intravenous administration, the animals are generally given at 1 or 2 mg/kg dose. For the oral (p.o.) dosing, mice and rats are generally given 5 or 10 mg/kg dose, and dogs and monkeys are generally given 10 mg/kg dose. The blood samples (0.3 mL) are drawn at 0.25, 0.5, 1.0, 2.0, 3.0, 4.0, 6.0, 8.0, 12 and 24 h time points or 0.083, 0.25, 0.5, 1.0, 2.0, 4.0, 6.0, 8.0 and 24 h time points and centrifuged at 3,000 or 4000 rpm for 2 to 10 min. The plasma solutions are collected, stored at −20° C. or −70° C. until analyzed by LC/MS/MS as described above.

[2] = Compound stability in human liver microsomes; assay type: in vitro ADME; conditions: pH 7.4; for half-life at 5 μM: human liver microsomes 0.5 mg protein/mL, compound 5 μM, NADPH, 37° C., read-out: Human T1/2; for CLint scaled at 5 μM: human liver microsomes, in vivo CLint extrapolated
Experimental: (§4) Human or rat liver microsomes incubations were conducted in duplicate in polypropylene tubes. The typical incubation mixtures consisted of human liver microsomes (0.5 mg protein/mL), compounds of interest (5 μM) and NADPH (1.0 mM) in a total volume of 200 μL potassium phosphate buffer (PBS, 100 mM, pH 7.4). Compounds were dissolved in DMSO and diluted with PBS such that the final concentration of DMSO was 0.05%. The enzymatic reactions were commenced with the addition of protein after a 3-min preincubation and incubated in a water bath open to the air at 37° C. Reactions were terminated at various time points (0, 5, 10, 15, 30, 60 min) by adding equal volume of ice-cold acetonitrile. The samples were stored at −80° C. until LC/MS/MS assays.
(§5) The concentrations of compounds in the incubation mixtures of human liver microsomes were determined by a LC/MS/MS method. The ranges of the linearity in the concentration range were determined for each tested compounds.
(§6) A parallel incubation was performed using denatured microsomes as the negative control, and reactions were terminated at various time points (0, 15, 60 min) after incubation at 37° C.
(§7) Dextromethorphan (70 μM) was selected as the positive control, and reactions were terminated at various time points (0, 5, 10, 15, 30, 60 min) after incubation at 37° C. Both positive and negative control samples were included in each assay to ensure the integrity of the microsomal incubation system.
(§8) The concentrations of compounds in human liver microsome incubations were plotted as a percentage of the relevant zero time point control for each reaction. The in vivo CLint were extrapolated (ref: Naritomi Y, Terashita S, Kimura S, Suzuki A, Kagayama A, Sugiyama Y. Prediction of human hepatic clearance from in vivo animal experiments and in vitro metabolic studies with liver microsomes from animals and humans. Drug Metabolism and Disposition 2001, 29: 1316-1324.)

[3] = Compound stability in rat liver microsomes; assay type: in vitro ADME; conditions: for half-life at 5 μM: pH 7.4, compound 5 μM, NADPH, 37° C., read-out: Rat T1/2; for CLint scaled at 5 μM: pH 7.4, in vivo CLint extrapolated
Experimental: as §4, §5, §6, §7, §8

T1 sequence (P08581 25-1390): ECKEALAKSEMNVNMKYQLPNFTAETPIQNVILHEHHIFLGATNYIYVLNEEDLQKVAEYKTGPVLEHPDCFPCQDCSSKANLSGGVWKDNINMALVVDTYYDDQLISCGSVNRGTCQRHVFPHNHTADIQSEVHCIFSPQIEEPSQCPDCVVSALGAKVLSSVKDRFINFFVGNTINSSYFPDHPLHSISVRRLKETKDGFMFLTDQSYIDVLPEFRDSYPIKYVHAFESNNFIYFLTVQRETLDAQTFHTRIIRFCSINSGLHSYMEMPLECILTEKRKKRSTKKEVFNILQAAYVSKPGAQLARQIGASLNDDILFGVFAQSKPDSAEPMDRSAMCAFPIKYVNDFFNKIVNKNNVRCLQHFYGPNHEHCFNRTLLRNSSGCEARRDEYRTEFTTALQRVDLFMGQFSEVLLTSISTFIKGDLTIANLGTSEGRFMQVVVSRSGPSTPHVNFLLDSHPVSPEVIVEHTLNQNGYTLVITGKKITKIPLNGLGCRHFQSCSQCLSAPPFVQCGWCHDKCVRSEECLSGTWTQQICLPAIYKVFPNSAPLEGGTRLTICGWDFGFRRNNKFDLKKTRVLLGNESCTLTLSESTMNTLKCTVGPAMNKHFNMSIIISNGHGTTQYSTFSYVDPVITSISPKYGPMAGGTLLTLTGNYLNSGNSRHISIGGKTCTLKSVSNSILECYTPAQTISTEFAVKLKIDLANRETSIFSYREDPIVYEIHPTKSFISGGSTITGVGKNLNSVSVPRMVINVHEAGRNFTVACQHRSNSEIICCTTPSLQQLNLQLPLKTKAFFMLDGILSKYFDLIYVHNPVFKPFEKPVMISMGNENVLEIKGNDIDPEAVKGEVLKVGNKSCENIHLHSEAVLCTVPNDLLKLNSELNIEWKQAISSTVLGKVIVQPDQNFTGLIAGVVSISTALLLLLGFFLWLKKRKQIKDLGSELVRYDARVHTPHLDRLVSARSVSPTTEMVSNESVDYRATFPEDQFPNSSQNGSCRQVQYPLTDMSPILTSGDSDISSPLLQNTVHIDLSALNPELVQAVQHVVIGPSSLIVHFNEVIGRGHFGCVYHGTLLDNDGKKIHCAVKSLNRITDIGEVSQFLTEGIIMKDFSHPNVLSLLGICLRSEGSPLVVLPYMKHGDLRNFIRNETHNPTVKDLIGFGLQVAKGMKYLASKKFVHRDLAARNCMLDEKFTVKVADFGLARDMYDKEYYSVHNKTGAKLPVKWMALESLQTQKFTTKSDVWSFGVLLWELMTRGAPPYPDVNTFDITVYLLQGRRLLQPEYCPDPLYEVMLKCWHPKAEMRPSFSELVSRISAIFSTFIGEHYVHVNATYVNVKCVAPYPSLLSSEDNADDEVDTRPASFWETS

Row | Structure (SMILES) | Kd (c-Met (h)) [nM] | TGI % (on last day of dosing) (U87MG glioblastoma cells; 6 mg/kg, 14 days) [%] | TGI % (on last day of dosing) (U87MG glioblastoma cells; 20 mg/kg, 14 days) [%] | TGI % (on last day of dosing) (U87MG glioblastoma cells; 60 mg/kg, 14 days) [%] | Kd (KDR (h)) [nM] | clearance (CL) after iv dosing ([1]; 2 mg/kg) [mL/min/kg] | F ([1]; iv dose 2 mg/kg) [%] | AUC(0-t) ([1]; 2 mg/kg) [ng·h/mL] | half-life ([1]; 2 mg/kg) [h] | Vd ([1]; 2 mg/kg) [L/kg] | clearance (CL) after iv dosing ([1]; 1 mg/kg) [mL/min/kg] | F ([1]; iv dose 1 mg/kg) [%] | AUC(0-t) ([1]; 1 mg/kg) [ng·h/mL] | half-life ([1]; 1 mg/kg) [h] | Vd ([1]; 1 mg/kg) [L/kg] | half-life at 5 μM [2] [h] | CLint scaled at 5 μM [2] [mL/min/kg] | half-life at 5 μM [3] [h] | CLint scaled at 5 μM [3] [mL/min/kg] | other results
1 | Cc1c(C(=O)Nc2cc(F)c(Oc3ccnc(N)c3)cc2F)c(=O)n(-c2ccccc2)n1C [Ex. 8, N-(4-((2-aminopyridin-4-yl)oxy)-2,5-difluorophenyl)-1,5-dimethyl-3-oxo-2-phenyl-2,3-dihydro-1H-pyrazole-4-carboxamide] | 4.8 | 13 | 25 | 43 | 1500 | 10.2 | 85.1 | 3350 | 0.82 | 0.51 | – | – | – | – | – | – | – | – | – | –
2 | Cc1c(C(=O)Nc2ccc(Oc3ccnc(NC(=O)N4CCOCC4)c3)cn2)c(=O)n(-c2ccccc2)n1C [Ex. 18, N-(4-((6-(1,5-dimethyl-3-oxo-2-phenyl-2,3-dihydro-1H-pyrazole-4-carboxamido)pyridin-3-yl)oxy)pyridin-2-yl)morpholine-4-carboxamide] | 2.9 | 28 | 49 | 57 | 39 | – | – | – | – | – | 4 | 77.2 | 4290 | 1.23 | 0.36 | – | – | – | – | –
3 | Cc1c(C(=O)Nc2ccc(Oc3ccnc(N)c3)cc2F)c(=O)n(-c2ccccc2)n1C [Ex. 30, N-(4-((2-aminopyridin-4-yl)oxy)-2-fluorophenyl)-1,5-dimethyl-3-oxo-2-phenyl-2,3-dihydro-1H-pyrazole-4-carboxamide] | – | – | – | – | – | 22 | 54.4 | 1490 | 11.8 | 2.64 | – | – | – | – | – | 2.09 | 13.9 | 1.61 | 25.8 | –
4 | Cc1c(C(=O)Nc2ccc(Oc3ccnc(N)c3Cl)cc2F)c(=O)n(-c2ccccc2)n1C [Ex. 31, N-(4-((2-amino-3-chloropyridin-4-yl)oxy)-2-fluorophenyl)-1,5-dimethyl-3-oxo-2-phenyl-2,3-dihydro-1H-pyrazole-4-carboxamide] | – | – | – | – | – | 8.83 | 70.3 | 3910 | 3.29 | 0.4 | – | – | – | – | – | 2.44 | 11.8 | 0.611 | 67.8 | –
5 | Cc1c(C(=O)Nc2ccc(Oc3ccnc(N)c3Cl)c(F)c2)c(=O)n(-c2ccccc2)n1C [Ex. 3, N-(4-((2-amino-3-chloropyridin-4-yl)oxy)-3-fluorophenyl)-1,5-dimethyl-3-oxo-2-phenyl-2,3-dihydro-1H-pyrazole-4-carboxamide] | 4.4 | – | – | – | 23 | – | – | – | – | – | 17 | 177.1 | 922 | 2.69 | 1.61 | 12.4 | 2.34 | 1.02 | 40.6 | TGI % (on last day of dosing) (U87MG glioblastoma cells; 10 mg/kg, 16 days): 53%; TGI % (on last day of dosing) (U87MG glioblastoma cells; 20 mg/kg, 16 days): 68%; TGI % (on last day of dosing) (U87MG glioblastoma cells; 40 mg/kg, 16 days): 85%
6 | CC(=O)Nc1cc(Oc2ccc(NC(=O)c3c(C)n(C)n(-c4ccccc4)c3=O)nc2)ccn1 [Ex. 17, N-(5-((2-acetamidopyridin-4-yl)oxy)pyridin-2-yl)-1,5-dimethyl-3-oxo-2-phenyl-2,3-dihydro-1H-pyrazole-4-carboxamide] | 20 | – | – | – | 25 | 0.5 | 59.7 | 69900 | 7.29 | 0.22 | – | – | – | – | – | – | – | – | – | TGI % (on last day of dosing) (U87MG glioblastoma cells; 6 mg/kg, 12 days): 26%; TGI % (on last day of dosing) (U87MG glioblastoma cells; 20 mg/kg, 12 days): 56%; TGI % (on last day of dosing) (U87MG glioblastoma cells; 60 mg/kg, 12 days): 85%
